Test results taken from patent US20190209509A1, “Hepatoprotective potential of Calebin A” (priority 2018, published 2019).

Columns and labels:
HepG2 cells [1] = assay: Protection from alcohol induced toxicity, Sulphorhodamine B assay; type: cell-based, Human; conditions: alcohol 1000 mM, 72 hours
Description: (§1) Human HepG2 cells (procured from NCCS, Pune) were cultured in Dulbecco's Modified Eagle Medium (DMEM) supplemented with 10% fetal bovine serum (FBS), 40 μgml^−1 gentamycin at 37° C. in an atmosphere of 5% CO2. When the cells reached 80-90% confluence, they were trypsinized and plated at 5000 cells per well in a 96-well microplate. After 24 hours of seeding, alcohol at a concentration of 1000 mM was added along with different non cytotoxic concentrations of Calebin. Sulphorhodamine B assay was performed after 72 hours of treatment to determine the number of viable cells and percentage protection was calculated (FIG. 1).

HepG2 cells [2] = assay: Protection from acetaminophen (paracetamol) induced toxicity, Sulphorhodamine B assay; type: cell-based, Human; conditions: 6.25 μM, acetaminophen 4 mM, 72 hours
Description: as §1, with “acetaminophen” for “alcohol”, “4” for “1000”, “2).” for “1).”

[3] = test system: C2C12 myotubes (muscle cells); assay: Glucose uptake assay (2-NBDG, flow cytometry) in muscle cells; type: cell-based; conditions: concentration printed as 3004, versus Metformin 200 μM
Description: The skeletal muscle cell line C2C12 myoblasts (procured from ATCC) were maintained in DMEM supplemented with 10% Fetal Bovine Serum at 37° C. with 5% CO2. Twenty thousand cells per well were seeded in a 24 well plate. When the cells reached 80-90% confluence, differentiation was induced by replacing the growth medium with DMEM containing 1% horse serum. Experiments were performed in completely differentiated C2C12 myotubes after 4-5 days in differentiation medium. Cells were then treated with 0.5% BSA in low glucose media for 16 hours and washed with cold Krebs-Ringer phosphate buffer without glucose. Cells were then treated with different non cytotoxic concentrations of samples in low glucose DMEM media with or without insulin at a concentration of 0.1 μM for 30 minutes at 37° C. Cells were then washed with cold PBS and stained with 5 μM of a fluorescent D-glucose analog 2-[N-(7-nitrobenz-2-oxa-1,3-diazol-4-yl) amino]-2-deoxy-D-glucose (2-NBDG) for 15 minutes in dark followed by flow cytometric detection of fluorescence produced by the cells (FIG. 3)

adipocytes = assay: Glucose uptake assay in adipocytes; type: cell-based; conditions: concentration printed as 3004, versus Metformin 200 μM

In the case of COc1cc(/C=C/C(=O)COC(=O)/C=C/c2ccc(O)c(OC)c2)ccc1O [Calebin A], the “percentage protection from alcohol induced toxicity” value (HepG2 cells [1]; 6.25 μM) is reported as “about 14%”, the “percentage protection from alcohol induced toxicity” value (HepG2 cells [1]; 12.5 μM) is reported as 30% and the “percentage protection from alcohol induced toxicity” value (HepG2 cells [1]; progressively higher concentration, printed 6.25 μM) is reported as 23%. For the same compound, the “percentage protection against acetaminophen induced toxicity” value (HepG2 cells [2]) was “about 15%”, the “increase in glucose uptake” value [3] was “almost as effective as Metformin” and the “increase in glucose uptake” value (adipocytes) was “almost as effective as Metformin”.
